In patent US12064437B2, “Methods for treating systemic lupus erythematosus and the use of biomarkers as a predictor of clinical sensitivity to therapies” (CELGENE CORPORATION, priority 2020, dated 2024):

Columns and labels:
Format in all cases: in vivo, human
[1] = test system: subjects with active autoantibody-positive SLE; assay: Phase 2b study in SLE: Lupus Low Disease Activity State (LLDAS) response; conditions: for percentages of LLDAS responders: Week 24; for LLDAS response at Week 24, stratified difference from placebo / percentage of subjects who achieved LLDAS response at Week 24: overall subjects; for percentage of subjects who achieved LLDAS response at Week 24: NRI, ITT
Method: (§1) The pharmacokinetics, pharmacodynamics (PD), efficacy, and safety of oral iberdomide ((S)-3-[4-({4-[(morpholin-4-yl)methyl]phenyl}methoxy)-1-oxo-1,3-dihydro-2H-isoindol-2-yl]piperidine-2,6-dione-hydrogen chloride (1/1)) were evaluated in a phase 2b study in subjects with active autoantibody-positive SLE.
(§2) Adult SLE patients (N=288) with a ≥6-month history of SLE and SLE Disease Activity Index (SLEDAI 2K) ≥6 were randomized to placebo (n=83) or iberdomide 0.15 mg QD (n=42), 0.3 mg QD (n=82), or 0.45 mg QD (n=81). Clinical response was determined by the SLE Responder Index 4 (SRI-4) at week 24 for all patients and within pre-specified biomarker-enriched subsets based on expression of Ikaros, Aiolos, the Type 1 IFN signature (IFI27, IFI44, IFI44L, RSAD2), and other gene modules measured from fingerstick blood collected at baseline (Modular Immune Profile Test, DxTerity Diagnostics, Inc.). The primary objective of the study was to evaluate the clinical efficacy of 3 doses of iberdomide (0.45 mg once per day [QD], 0.30 mg QD, or 0.15 mg QD) compared to placebo, for the treatment of active SLE using the SLE Responder Index at Week 24.
The percentages of LLDAS responders for key mRNA and DNA subgroups were as follows: • IKZF1 high: 23.4%, 17.0%, and 14.3% for 0.45 mg, 0.30 mg, and 0.15 mg QD iberdomide, respectively, compared with 12.5% for placebo. • IKZF3 high: 27.8%, 9.4%, 14.3%, respectively, compared with 11.1% for placebo. • Type 1 IFN module high: 17.5%, 14.3%, and 24.0%, respectively, compared with 8.3% for placebo. • Ikaros IFN module high: 16.1%, 14.3%, and 20.0%, respectively, compared with 8.2% for placebo. Drug Dose, Drug Concentration, and Relationship to Response

[2] = test system: subjects with active autoantibody-positive SLE; assay: Phase 2b study in SLE: BILAG-Based Combined Lupus Assessment (BICLA) response
Method: as §1, §2
The treatment comparison with placebo (33.3%) for BICLA was larger in the subgroup of subjects with baseline IKZF3 high, but only for 0.45 mg QD iberdomide (52.0%) and 0.15 mg QD iberdomide (41.7%).

[3] = test system: subjects with active autoantibody-positive SLE; assay: Exposure-response analysis: logistic regression of SRI(4) response on iberdomide AUCss
Method: PK assessments were performed. Exposure-response analysis included subjects from Study SLE-002 who had both posthoc estimated iberdomide PK metric of AUCss from the final population PK model and efficacy data.
The effect of iberdomide exposure on SRI(4) response was further evaluated by multivariate logistic modeling. Subject characteristics of baseline oral OCS (yes as reference), baseline antimalarials (yes as reference), categorical variables of Type I IFN and IKZF3 (Aiolos) signature (low as reference) were tested in regression analysis. Subjects with IFKZ3 (Aiolos) high gene signature were associated with better response (p=0.033) (Table 2).

[4] = test system: subjects with active autoantibody-positive SLE; assay: Phase 2b study in SLE: improvement of ≥50% from baseline in CLASI activity score; conditions: for percentage of subjects with improvement of ≥50% from baseline in CLASI activity score: baseline CLASI ≥8, Week 24
Method: as §1, §2
CLASI activity score at Week 24 was analyzed. Results for improvement of ≥50% from baseline in CLASI activity score at Week 24 were observed. Results are described as follows for overall subjects at each time point and for subgroups based on baseline characteristics and on mRNA and DNA expression as follows: […]

[5] = Ikaros IFN module high, 0.15 mg QD
[6] = Ikaros IFN module high, 0.30 mg QD
[7] = Ikaros IFN module high, 0.45 mg QD
[8] = Type 1 IFN module high, 0.15 mg QD
[9] = Type 1 IFN module high, 0.30 mg QD
[10] = Type 1 IFN module high, 0.45 mg QD
[11] = AUCss on IFKZ3 (Aiolos) High Subset

With `O=C1CC[C@H](N2Cc3c(OCc4ccc(CN5CCOCC5)cc4)cccc3C2=O)C(=O)N1` [iberdomide, (S)-3-[4-({4-[(morpholin-4-yl)methyl]phenyl}methoxy)-1-oxo-1,3-dihydro-2H-isoindol-2-yl]piperidine-2,6-dione-hydrogen chloride (1/1)] the “percentages of LLDAS responders” value ([1]; IKZF1 high, 0.15 mg QD) was 14.3%, the “percentages of LLDAS responders” value ([1]; IKZF1 high, 0.30 mg QD) was 17.0% and the “percentages of LLDAS responders” value ([1]; IKZF1 high, 0.45 mg QD) was 23.4%. The “percentages of LLDAS responders” value ([1]; IKZF3 high, 0.15 mg QD) was 14.3%, the “percentages of LLDAS responders” value ([1]; IKZF3 high, 0.30 mg QD) was 9.4% and the “percentages of LLDAS responders” value ([1]; IKZF3 high, 0.45 mg QD) was 27.8%. The “percentages of LLDAS responders” value [1, 5] was 20.0%, the “percentages of LLDAS responders” value [1, 6] was 14.3% and the “percentages of LLDAS responders” value [1, 7] was 16.1%. For the same molecule, the “percentages of LLDAS responders” value [1, 8] was 24.0%, the “percentages of LLDAS responders” value [1, 9] was 14.3% and the “percentages of LLDAS responders” value [1, 10] was 17.5%. The “LLDAS response at Week 24, stratified difference from placebo” value ([1]; 0.15 mg QD) was 6.7%, the “percentage of subjects who achieved LLDAS response at Week 24” value ([1]; 0.15 mg QD) was 19.0% and the “percentage of subjects who achieved LLDAS response at Week 24” value ([1]; 0.30 mg QD) was 17.1%. The “LLDAS response at Week 24, stratified difference from placebo” value ([1]; 0.45 mg QD) was 6.9%, the “percentage of subjects who achieved LLDAS response at Week 24” value ([1]; 0.45 mg QD) was 19.8% and the “percentage of subjects who achieved BICLA response at Week 24” value ([2]; baseline IKZF3 high, 0.15 mg QD) was 41.7%. For the same molecule, the “percentage of subjects who achieved BICLA response at Week 24” value ([2]; baseline IKZF3 high, 0.45 mg QD) was 52.0%, the “BICLA response at Week 24, stratified difference from placebo” value ([2]; overall subjects with baseline BILAG 2004 1A or 2B scores, 0.15 mg QD) was 0.3% and the “percentage of subjects who achieved BICLA response at Week 24” value ([2]; overall subjects with baseline BILAG 2004 1A or 2B scores, 0.15 mg QD, NRI, ITT) was 37.1%. For the same molecule, the “BICLA response at Week 24, stratified difference from placebo” value ([2]; overall subjects with baseline BILAG 2004 1A or 2B scores, 0.30 mg QD) was −3.6%, the “percentage of subjects who achieved BICLA response at Week 24” value ([2]; overall subjects with baseline BILAG 2004 1A or 2B scores, 0.30 mg QD, NRI, ITT) was 33.3% and the “BICLA response at Week 24, stratified difference from placebo” value ([2]; overall subjects with baseline BILAG 2004 1A or 2B scores, 0.45 mg QD) was 1.0%. The “percentage of subjects who achieved BICLA response at Week 24” value ([2]; overall subjects with baseline BILAG 2004 1A or 2B scores, 0.45 mg QD, NRI, ITT) was 37.3%, the “OR (odds ratio) of Multivariate Logistic Model for SRI(4)” value [3, 11] was 1.102 and the “Parameter Estimate of Multivariate Logistic Model for SRI(4)” value [3, 11] was 0.0969. The “relationship of binary response SRI(4) to iberdomide AUCss (logistic regression)” value ([3]; dose range 0.15 mg to 0.45 mg QD) was “no relationship”, the “improvement of ≥50% from baseline in CLASI activity score, stratified difference from placebo” value ([4]; 0.45 mg QD, Week 8, ITT population using NRI) was 14.3% and the “improvement of ≥50% from baseline in CLASI activity score, stratified difference from placebo” value ([4]; 0.45 mg QD, Week 12, ITT population using NRI) was 12.2%. The “improvement of ≥50% from baseline in CLASI activity score, stratified difference from placebo” value ([4]; 0.45 mg QD, Week 16, ITT population using NRI) was 18.2%, the “improvement of ≥50% from baseline in CLASI activity score, stratified difference from placebo” value ([4]; 0.45 mg QD, Week 20, ITT population using NRI) was 12.3% and the “percentage of subjects with improvement of ≥50% from baseline in CLASI activity score” value ([4]; IKZF3 high, 0.15 mg QD) was 50.0%. For the same molecule, the “percentage of subjects with improvement of ≥50% from baseline in CLASI activity score” value ([4]; IKZF3 high, 0.30 mg QD) was 33.3%, the “percentage of subjects with improvement of ≥50% from baseline in CLASI activity score” value ([4]; IKZF3 high, 0.45 mg QD) was 77.8% and the “percentage of subjects with improvement of ≥50% from baseline in CLASI activity score” value [4, 5] was 54.5%. For the same molecule, the “percentage of subjects with improvement of ≥50% from baseline in CLASI activity score” value [4, 6] was 52.4%, the “percentage of subjects with improvement of ≥50% from baseline in CLASI activity score” value [4, 7] was 63.6% and the “percentage of subjects with improvement of ≥50% from baseline in CLASI activity score” value [4, 8] was 66.7%. For the same molecule, the “percentage of subjects with improvement of ≥50% from baseline in CLASI activity score” value [4, 9] was 52.4%, the “percentage of subjects with improvement of ≥50% from baseline in CLASI activity score” value [4, 10] was 61.9% and the “improvement of ≥50% from baseline in CLASI activity score, stratified difference from placebo” value ([4]; baseline CLASI activity score ≥8, 0.15 mg QD, Week 16) was 10.6%. The “improvement of ≥50% from baseline in CLASI activity score, stratified difference from placebo” value ([4]; baseline CLASI activity score ≥8, 0.15 mg QD, Week 20) was 35.3%, the “improvement of ≥50% from baseline in CLASI activity score, stratified difference from placebo” value ([4]; baseline CLASI activity score ≥8, 0.30 mg QD, Week 8) was 23.6% and the “improvement of ≥50% from baseline in CLASI activity score, stratified difference from placebo” value ([4]; baseline CLASI activity score ≥8, 0.30 mg QD, Week 16) was 3.1. For the same molecule, the “improvement of ≥50% from baseline in CLASI activity score, stratified difference from placebo” value ([4]; baseline CLASI activity score ≥8, 0.45 mg QD, Week 4) was 32.0% and the “improvement of ≥50% from baseline in CLASI activity score, stratified difference from placebo” value ([4]; baseline CLASI activity score ≥8, 0.45 mg QD, Week 16) was 9.4%.
